Results on 19 molecules are retold here after patent US4102884A, “14 β-Hydroxy 3-deoxycardenolides” (priority 1975, dated 1978).

“Also recorded” adds a separate entry of the source. Where two headings read alike, the source gives them in different places.

Data set [1] relates to spontaneously beating atrial preparations. The data set is described as follows: Inotropic effect (increase in contractility) in spontaneously beating atrial preparations. Particulars: for EC (30% increase in contractility) / EC (50% increase in contractility) / EC (80% increase in contractility): Cavia porcellus; for EC (30% increase in contractility): read-out: Molar concentration causing 30% increase in contractility; for EC (50% increase in contractility): read-out: Molar concentration causing 50% increase in contractility; for inotropic effect, comparison in words: compared with digoxin and/or 3-deoxycannogenol; for arrhythmogenicity relative to digoxin, in words: inotropic tests; for EC (80% increase in contractility): read-out: Molar concentration causing 80% increase in contractility. On the set-up: species or system guinea pigs. The procedure: (§1) The inotropic effects have been determined with spontaneously beating atrial preparations derived from guinea pigs. The ATP-ase was obtained from the brain of the same animal and the methods of Okita et al (1973) and of Kupchan et al (1964) were employed. The lethal dose in cats was determined by the method of Chen.

For another data set, the system named is heart muscle. On the set-up: species or system guinea pigs. Particulars: decreasing order of number of washings; inotropic tests. The procedure:
as §1

For a further data set, the system named is ATP-ase. Nature of the data set: ATP-ase inhibition, methods of Okita et al (1973) and Kupchan et al (1964). The data set is classed as biochemical, guinea pigs (brain). On the set-up: ATP-ase inhibition, % reversibility of inhibition: concentration or dose not given beside the values. Conditions: for ATP-ase inhibition, comparison in words: compared with 3-deoxycannogenol and digoxin, or acetyl-strophanthidin; for ATP-ase inhibition, % reversibility of inhibition / ATP-ase inhibition, % inhibition at a 1×10^-4 molar concentration: Table 2. The protocol:
as §1

For data set [2] the following is noted: cited from earlier work.
In another data set the test system is heart. Conditions: literature; cited from earlier work.
Data set [3] is described as follows: Lipophilicity (statement in words). Format: physicochemical.
The subject of data set [4] is cats. Nature of the data set: Lethal dose in cats, method of Chen. The data set is classed as in vivo. Conditions: compared with digoxin. The protocol: as §1
Data set [5] concerns cats. Nature of the data set: Emetic effects in cats, intravenous. The data set is classed as in vivo. Conditions: intravenous doses amounting to 1/10 and 1/100 of the lethal dose.
The mark [6] stands for this setting: Table 2, preliminary biological tests, 30%.
[7] abbreviates: Table I / Example 45, guinea pig atria.

Consider `C[C@]12CC[C@H]3[C@@H](CC[C@@H]4CCCC[C@@]43COC=O)[C@@]1(O)CC[C@@H]2C1=CC(=O)OC1` [drawing 19], for which, in data set [1] (setting [6]), the EC (30% increase in contractility) stood at 2.9 µM.

For `C[C@H]1O[C@@H](O[C@H]2[C@@H](O)C[C@H](O[C@H]3[C@@H](O)C[C@H](O[C@H]4CC[C@@]5(C)[C@H](CC[C@@H]6[C@@H]5CC[C@]5(C)[C@@H](C7=CC(=O)OC7)CC[C@]65O)C4)O[C@@H]3C)O[C@@H]2C)C[C@H](O)[C@@H]1O` [digitoxin, reference compound], the “number of washings to remove the compound from the bath / ease of removal” value (from here on “number … from the bath / ease of removal”) with heart muscle is given as “digitoxin > digoxin > 3-deoxycannogenol > 14,19-dihydroxy-5β,14β-carda-3,20(22)-dienolide > strophanthidin 3-acetate”.

For the molecule `C[C@]12CCCC[C@H]1CC[C@@H]1[C@@H]2C[C@@H](O)[C@]2(C)[C@@H](C3=CC(=O)OC3)CC[C@]12O` [3-deoxydigoxigenin], the EC (50% increase in contractility) in data set [1] (setting [7]) is 7.6 µM. Moreover, in data set [1], the “inotropic effect, comparison in words” value is “comparable biological and inotropic effects”; the “arrhythmogenicity relative to digoxin, in words” value was “much less arrhythomogenic relative to the anitropic activity than digoxin”. In addition, in the data set on ATP-ase, the “ATP-ase inhibition, comparison in words” value was “comparable biological and inotropic effects and the ATP-ase inhibition as the 19-deoxygenated steroid acetyl-strophanthidin”. Moreover, in the data set on ATP-ase (guinea pig brain ATP-ase, read-out: Molar concentration causing 50% ATP-ase inhibition), the IC50 turned out to be 68 µM.

With `C[C@]12CC[C@H]3[C@@H](CC[C@@H]4CCCC[C@@]43CO)[C@@]1(O)CC[C@@H]2C1COC(=O)C1` (stereo partly drawn) [20(22)-dihydro analog, 3-deoxy-20.xi.,22-dihydrocannogenol], the “heart-activity, in words” value in data set [1] is “substantial heart-activities”.

On to `C[C@@H]1O[C@@H](O[C@H]2C[C@@H](O)[C@]3(CO)[C@H]4[C@H](O)C[C@]5(C)[C@@H](C6=CC(=O)OC6)CC[C@]5(O)[C@@H]4CC[C@]3(O)C2)[C@H](O)[C@H](O)[C@H]1O` [ouabain], for which, in data set [2], the “intravenous activity, onset and duration, in words” value is “high intravenous activity, fast onset and short duration of activity”; the “oral activity, in words” value is recorded as “rather low oral activity”.

As for `CO[C@H]1C[C@H](O[C@H]2CC[C@]3(C)[C@H]4CC[C@]5(C)[C@@H](C6=CC(=O)OC6)CC[C@]5(O)[C@@H]4CC[C@]3(O)C2)O[C@H](C)[C@H]1O` [cymaroside of 5β-hydroxydigitoxigenin], the “cardiac activity, in words” value in the data set with heart is listed as “nearly twice as active as the cymaroside of digitoxigenin”.

As for `C[C@]12CC[C@H]3[C@@H](CC[C@@H]4C=CCC[C@@]43COC=O)[C@@]1(O)CC[C@@H]2C1=CC(=O)OC1`, in the data set on ATP-ase, the “ATP-ase inhibition, % reversibility of inhibition” value was found to be 84% and the “ATP-ase inhibition, % inhibition at a 1×10^-4 molar concentration” value (“ATP-ase inhibition, % inhibition” for short) amounted to 41%.

On to `C[C@]12CC[C@@H]3[C@H]4CCCC[C@H]4CC[C@H]3[C@@]1(O)CC[C@@H]2C1=CC(=O)OC1` [drawing 23], for which, in the data set on ATP-ase, the “ATP-ase inhibition, % reversibility of inhibition” value worked out at 76% and the “ATP-ase inhibition, % inhibition” value is given as 59%.

For the molecule `C[C@@H]1O[C@@H](OC2CC[C@@]3(CO)[C@@H](CC[C@@H]4[C@@H]3[C@@H](O)C[C@]3(C)[C@@H](C5=CC(=O)OC5)CC[C@]43O)C2)[C@H](O)[C@H](O)[C@H]1O` (stereo partly drawn) [panoside], in the data set on heart, the “cardiac activity, in words” value was “high cardiac activity; also recorded: highly potent”.

`C[C@]12CC[C@H]3[C@@H](CC[C@@H]4CCCC[C@@]43COC=O)[C@@]1(O)CC[C@@H]2C1=CC(=O)OC1` [19-formate of 3-deoxycannogenol, 19-formyloxy-14-hydroxy-5β,14β-card-20(22)-enolide]: the “lipophilicity, in words” value in data set [3] is given as “more lipophilic”. The “inotropic effect, comparison in words” value in data set [1] is listed as “substantial inotropic activity which equals about that of digoxin”; in data set [1] (listed as 19-formate ester of 3-deoxycannogenol) it was “less active than 3-deoxycannogenol”.

With `C[C@]12CC[C@H]3[C@@H](CC[C@H]4CCCC[C@@]43COC=O)[C@@]1(O)CC[C@@H]2C1=CC(=O)OC1`, the EC (30% increase in contractility) in data set [1] (setting [6]) worked out at 50 µM. In addition, in the data set on ATP-ase, the “ATP-ase inhibition, % reversibility of inhibition” value was determined as 95% and the “ATP-ase inhibition, % inhibition” value is on record as 42%.

For the molecule `C[C@]12CC[C@H]3[C@@H](CC[C@@H]4CCCC[C@@]43CO)[C@@]1(O)CC[C@@H]2C1=CC(=O)OC1` [3-deoxycannogenol, 19-hydroxy-3-deoxydigitoxigenin], the “lipophilicity, in words” value in data set [3] is “considerably more lipohilic than the 19-oxygenated cardenolides obtained from natural sources”. Further, in the data set with cats [4] (cats), the “toxicity relative to digoxin (lethal dose), in words” value is listed as “substantially lower than that of digoxin; also recorded: less than half as toxic as digoxin”. Further, the “therapeutic index, in words” value in the data set with cats [4] is listed as “better therapeutic index”. In data set [1], the “dissociation of inotropic activity from ATP-ase inhibition and lethality, in words” value is “strong dissociation of inotropic activity from ATP-ase inhibition and lethality”; the “inotropic effect, comparison in words” value is recorded as “considerably more strongly than digoxin; also recorded: strong inotropic effect”; the “arrhythmogenicity relative to digoxin, in words” value is listed as “considerably less arrhythomogenic than digoxin”. Also, the EC (50% increase in contractility) in data set [1] (setting [7]) was 1.1 µM. Besides, in data set [1] (Table I, guinea pig atria, 30%), the EC (30% increase in contractility) came out at 0.72 µM. In addition, in data set [1] (Table I, guinea pig atria), the EC (80% increase in contractility) was 1.95 µM. The “arrhythmia, in words” value in data set [1] (at doses causing an increase of 90% of contractile force) is reported as “no arrhythmia were observed”. In data set [1] (molar basis, relative to digoxin), the “times more inotropic than digoxin” value was 2-4 times. Also, in the data set with heart muscle, the “number … from the bath / ease of removal” value is “more readily removed from the bath, containing the heart muscle, by repeated washing, than digoxin and less readily than the more polar strophanthidin 3-acetate; also recorded: digitoxin > digoxin > 3-deoxycannogenol > 14,19-dihydroxy-5β,14β-carda-3,20(22)-dienolide > strophanthidin 3-acetate”. Besides, in the data set with cats [5], the emetic effects result is listed as “no emetic effects”.

In the case of `C[C@]12CCCC[C@H]1CC[C@@H]1[C@@H]2CC[C@]2(C)[C@@H](C3=CC(=O)OC3)CC[C@]12O` [3-deoxydigitoxigenin, 14-hydroxy-5β,14β-card-20(22)-enolide], in the data set on heart, the “cardiac activity, in words” value is “significantly less active than digitoxigenin”.

Take `C[C@]12CC[C@H]3[C@@H](CC[C@@H]4CCCC[C@@]43CO)[C@@]1(O)CC[C@@H]2C1COC(=O)C1` (stereo partly drawn) [drawing 21]: the EC (30% increase in contractility) in data set [1] (setting [6]) amounted to 18.5 µM. In data set [1] (Table 2, preliminary biological tests), the EC (50% increase in contractility) came out at 40 µM. For the same molecule, in the data set with ATP-ase, the “ATP-ase inhibition, % reversibility of inhibition” value is 57% and the “ATP-ase inhibition, % inhibition” value came to 45%.

As for `C[C@]12CC[C@H]3[C@@H](CC[C@H]4C=CCC[C@@]43CO)[C@@]1(O)CC[C@@H]2C1=CC(=O)OC1`, the “Molar concentration causing 30% increase in contractility” value in data set [1] (setting [6]) was “inactive”. Also, in the data set with ATP-ase, the “ATP-ase inhibition, % reversibility of inhibition” value was 81% and the “ATP-ase inhibition, % inhibition” value came to 63%.

Regarding `CC(=O)O[C@@H]1C[C@]2(O)[C@H](CC[C@]3(C)[C@@H](c4ccc(=O)oc4)CC[C@@]32O)[C@@]2(C)CC[C@H](O)C=C12` [scillirosidin], in the data set on heart, the “cardiac activity, in words” value is given as “high cardiac activity”.

Take `CC(=O)O[C@H]1CC[C@]2(C=O)[C@H]3CC[C@]4(C)[C@@H](C5=CC(=O)OC5)CC[C@]4(O)[C@@H]3CC[C@]2(O)C1` [strophanthidin 3-acetate]: in data set [2], the “intravenous activity, onset and duration, in words” value was “high intravenous activity, fast onset and short duration of activity”; the “oral activity, in words” value is “rather low oral activity”. Besides, the “number … from the bath / ease of removal” value in the data set on heart muscle was “digitoxin > digoxin > 3-deoxycannogenol > 14,19-dihydroxy-5β,14β-carda-3,20(22)-dienolide > strophanthidin 3-acetate”.

As for `C[C@]12CC[C@@H]3[C@H]4CCCC[C@H]4CC[C@H]3[C@@]1(O)CC[C@@H]2C1=CC(=O)OC1` [19-nor analog, 14-hydroxy-19-nor-5β,14β-card-20(22)-enolide], the “heart-activity, in words” value in data set [1] is “substantial heart-activities”.

For `C[C@]12CC[C@H]3[C@@H](CC[C@@H]4C=CCC[C@@]43CO)[C@@]1(O)CC[C@@H]2C1=CC(=O)OC1` [14,19-dihydroxy-5β,14β-carda-3,20(22)-dienolide], the EC (50% increase in contractility) in data set [1] (setting [7]) was determined as 2.8 µM. For the same molecule, the EC (30% increase in contractility) in data set [1] (Table I, guinea pig atria, 30%) worked out at 2.2 µM. The EC (80% increase in contractility) in data set [1] (Table I, guinea pig atria) was 4 µM. Further, the “inotropic effect, comparison in words” value in data set [1] is “generally between those of 3-deoxycannogenol and digoxin”; in data set [1] (listed as 3(4)-anhydrocannogenol), “greater inotropic activity than digoxin, though it is less active than 3-deoxycannogenol”. In addition, the “arrhythmogenicity relative to digoxin, in words” value in data set [1] is reported as “considerably less arrhythomogenic than digoxin”. Further, the “number … from the bath / ease of removal” value in the data set on heart muscle is listed as “digitoxin > digoxin > 3-deoxycannogenol > 14,19-dihydroxy-5β,14β-carda-3,20(22)-dienolide > strophanthidin 3-acetate”. Also, the “toxicity relative to digoxin, in words” value in the data set on ATP-ase (basis not stated, only ATP-ase inhibition tabulated) was “appears to be less toxic than digoxin”. Further, the “ATP-ase inhibition, comparison in words” value in the data set on ATP-ase was “generally between those of 3-deoxycannogenol and digoxin”.
